What was measured:
[1] = biological target: Neuraminidase (Influenza A virus (strain A/Wilson-Smith/1933 H1N1) (Influenza A virus(strain A/WS/1933 H1N1)), UniProt P03470); test: Competitive inhibition of MDCK infected Influenza A virus A/WSN/33(H1N1) neuraminidase using MU-NANA as substrate preincubated for 30 mins followed by substrate addition measured after 1 hr by spectrofluorometric method; assay type: cell-based, Influenza A virus (A/WSN/1933(H1N1))
[2] = Competitive inhibition of MDCK infected Influenza A virus A/Taiwan/3446/2002(H3N2) neuraminidase using MU-NANA as substrate preincubated for 30 mins followed by substrate addition measured after 1 hr by spectrofluorometric method
[3] = Inhibition of MDCK infected Influenza A virus A/Taiwan/3446/2002(H3N2) neuraminidase using MU-NANA as substrate preincubated for 30 mins followed by substrate addition measured after 1 hr by spectrofluorometric method; assay type: cell-based
[4] = biological target: Neuraminidase (Influenza A virus (strain A/Wilson-Smith/1933 H1N1) (Influenza A virus(strain A/WS/1933 H1N1)), UniProt P03470); test: Inhibition of MDCK infected Influenza A virus A/WSN/33(H1N1) neuraminidase using MU-NANA as substrate preincubated for 30 mins followed by substrate addition measured after 1 hr by spectrofluorometric method; assay type: cell-based, Influenza A virus (A/WSN/1933(H1N1))

Neuraminidase (Influenza A virus (strain A/Wilson-Smith/1933 H1N1) (Influenza A virus(strain A/WS/1933 H1N1)), UniProt P03470), sequence (P03470 whole entry): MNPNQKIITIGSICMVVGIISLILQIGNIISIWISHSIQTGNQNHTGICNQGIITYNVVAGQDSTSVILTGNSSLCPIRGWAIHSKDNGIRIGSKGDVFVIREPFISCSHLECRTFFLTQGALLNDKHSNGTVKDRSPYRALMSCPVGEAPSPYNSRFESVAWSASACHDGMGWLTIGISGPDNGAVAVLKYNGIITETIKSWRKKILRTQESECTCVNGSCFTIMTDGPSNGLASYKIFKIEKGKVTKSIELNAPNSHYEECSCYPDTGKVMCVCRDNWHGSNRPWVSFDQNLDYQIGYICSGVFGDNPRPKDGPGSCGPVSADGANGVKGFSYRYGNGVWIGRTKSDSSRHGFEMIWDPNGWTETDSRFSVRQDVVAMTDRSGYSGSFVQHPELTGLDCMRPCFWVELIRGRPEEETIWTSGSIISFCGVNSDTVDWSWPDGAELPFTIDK

Structure (SMILES): CC(=O)N[C@H]1C([C@H](O)[C@H](O)CO)OC(C(=O)O)=C[C@@H]1NC(=N)NC(=O)CCn1cc(-c2ccccc2)nn1 (stereo partly drawn)
- IC50 [1]: 146 nM
- IC50 [2]: 135 nM

Structure (SMILES): CC(=O)N[C@H]1C([C@H](O)[C@H](O)CO)OC(C(=O)O)=C[C@@H]1NC(=N)NC(=O)CCCCn1cc(-c2ccccc2)nn1 (stereo partly drawn)
- IC50 [1]: 169 nM
- IC50 [2]: 110 nM

Structure (SMILES): COc1ccc2cc(-c3cn(CC(=O)NC(=N)N[C@H]4C=C(C(=O)O)O[C@@H]([C@H](O)[C@H](O)CO)[C@@H]4NC(C)=O)nn3)ccc2c1
- IC50 [3]: 28 nM
- IC50 [4]: 31 nM

Structure (SMILES): CC(=O)N[C@H]1C([C@H](O)[C@H](O)CO)OC(C(=O)O)=C[C@@H]1NC(=N)NC(=O)Cn1cc(-c2ccccc2)nn1 (stereo partly drawn)
- IC50 [1]: 9.9 nM
- IC50 [2]: 8 nM

Structure (SMILES): CC(=O)N[C@H]1[C@H]([C@H](O)[C@H](O)CO)OC(C(=O)O)=C[C@@H]1NC(=N)NC(=O)Cn1cc(-c2ccccc2N)nn1
- IC50 [3]: 13 nM
- IC50 [4]: 12 nM

Structure (SMILES): CC(=O)N[C@H]1[C@H]([C@H](O)[C@H](O)CO)OC(C(=O)O)=C[C@@H]1NC(=N)NC(=O)Cn1cc(-c2ccc(Cl)cc2)nn1
- IC50 [3]: 14 nM
- IC50 [4]: 15 nM

Structure (SMILES): COc1ccccc1-c1cn(CC(=O)NC(=N)N[C@H]2C=C(C(=O)O)O[C@@H]([C@H](O)[C@H](O)CO)[C@@H]2NC(C)=O)nn1
- IC50 [3]: 10 nM
- IC50 [4]: 8 nM

Structure (SMILES): CC(=O)N[C@H]1C([C@H](O)[C@H](O)CO)OC(C(=O)O)=C[C@@H]1NC(=N)NC(=O)CCCn1cc(-c2ccccc2)nn1 (stereo partly drawn)
- IC50 [1]: 238 nM
- IC50 [2]: 228 nM

Structure (SMILES): CC(=O)N[C@H]1[C@H]([C@H](O)[C@H](O)CO)OC(C(=O)O)=C[C@@H]1NC(=N)NC(=O)Cn1cc(-c2ccc(N)cc2)nn1
- IC50 [3]: 13 nM
- IC50 [4]: 12 nM

Structure (SMILES): CCOC(=O)c1cccc(-c2cn(CC(=O)NC(=N)N[C@H]3C=C(C(=O)O)O[C@@H]([C@H](O)[C@H](O)CO)[C@@H]3NC(C)=O)nn2)c1
- IC50 [3]: 19 nM
- IC50 [4]: 13 nM

Structure (SMILES): CC(=O)N[C@H]1[C@H]([C@H](O)[C@H](O)CO)OC(C(=O)O)=C[C@@H]1NC(=N)NC(=O)Cn1cc(-c2ccc(F)cc2)nn1
- IC50 [3]: 27 nM
- IC50 [4]: 29 nM

Structure (SMILES): CC(=O)N[C@H]1[C@H]([C@H](O)[C@H](O)CO)OC(C(=O)O)=C[C@@H]1NC(=N)NC(=O)CSc1ccc2ccccc2c1
- IC50 [3]: 25 nM
- IC50 [4]: 20 nM

Structure (SMILES): CC(=O)N[C@H]1[C@H]([C@H](O)[C@H](O)CO)OC(C(=O)O)=C[C@@H]1NC(=N)NC(=O)Cn1cc(C2=CCCCC2)nn1
- IC50 [3]: 17 nM
- IC50 [4]: 15 nM

Structure (SMILES): CC(=O)N[C@H]1[C@H]([C@H](O)[C@H](O)CO)OC(C(=O)O)=C[C@@H]1NC(=N)NC(=O)Cn1cc(-c2cccc(F)c2)nn1
- IC50 [3]: 17 nM
- IC50 [4]: 14 nM

Structure (SMILES): CC(=O)N[C@H]1[C@H]([C@H](O)[C@H](O)CO)OC(C(=O)O)=C[C@@H]1NC(=N)NC(=O)Cn1cc(-c2ccc(C)cc2)nn1
- IC50 [3]: 17 nM
- IC50 [4]: 14 nM

Structure (SMILES): COc1ccc(-c2cn(CC(=O)NC(=N)N[C@H]3C=C(C(=O)O)O[C@@H]([C@H](O)[C@H](O)CO)[C@@H]3NC(C)=O)nn2)cc1
- IC50 [3]: 17 nM
- IC50 [4]: 12 nM

Structure (SMILES): CC(=O)N[C@H]1[C@H]([C@H](O)[C@H](O)CO)OC(C(=O)O)=C[C@@H]1NC(=N)NC(=O)Cn1cc(C2CCCCC2)nn1
- IC50 [3]: 2.9 nM
- IC50 [4]: 2.3 nM

Structure (SMILES): CC(=O)N[C@H]1[C@H]([C@H](O)[C@H](O)CO)OC(C(=O)O)=C[C@@H]1NC(=N)NC(=O)Cn1cc(-c2cccc(N)c2)nn1
- IC50 [3]: 11 nM
- IC50 [4]: 10 nM

Structure (SMILES): CC(=O)N[C@H]1[C@H]([C@H](O)[C@H](O)CO)OC(C(=O)O)=C[C@@H]1NC(=N)NC(=O)Cn1cc(-c2cccc(Cl)c2)nn1
- IC50 [3]: 8 nM
- IC50 [4]: 9 nM

From ChEMBL document CHEMBL3871267, “Design and synthesis of 1,2,3-triazole-containing N-acyl zanamivir analogs as potent neuraminidase inhibitors” (Eur J Med Chem, 2016)
